Assay results as given in US7547676B2, “Antagonist peptides to the C5A chemotactic function of vitamin D binding protein” (The Research Foundation of State University of New York, priority 2004, dated 2009).
Residue numbers refer to the chain shown, from its start.

T1: DBP immobilized on a Biacore sensor chip (Homo sapiens, UniProt P02774)
T1 construct: DBP was purified from human plasma; purchased Biodesign International; host or cells: human plasma
T1 sequence (P02774 17-474): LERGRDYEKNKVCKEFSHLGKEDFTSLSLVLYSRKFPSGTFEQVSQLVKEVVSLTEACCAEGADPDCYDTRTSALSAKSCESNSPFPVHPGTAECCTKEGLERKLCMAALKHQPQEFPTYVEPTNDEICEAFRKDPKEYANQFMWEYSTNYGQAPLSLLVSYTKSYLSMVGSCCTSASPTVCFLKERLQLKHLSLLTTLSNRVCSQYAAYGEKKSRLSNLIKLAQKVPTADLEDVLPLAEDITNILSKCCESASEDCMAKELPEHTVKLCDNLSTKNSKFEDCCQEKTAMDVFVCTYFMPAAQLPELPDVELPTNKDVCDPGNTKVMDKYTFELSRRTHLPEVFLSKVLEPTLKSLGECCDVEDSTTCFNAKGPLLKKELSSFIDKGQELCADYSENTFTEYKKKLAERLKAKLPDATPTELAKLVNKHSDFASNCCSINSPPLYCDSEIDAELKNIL

B1: full-length reDBP: E. coli expressed full-length human DBP (Gc-2 allele), residues 1-458 (protein)
chain: T1 sequence (P02774 17-474) with T420K, H429R

Assays:
[1] = system: U937-C5aR cells; assay: Biacore: U937-C5aR cell binding to immobilized DBP peptides; design: species or system human; details: FIG. 9B, 9C; peptide immobilized to Biacore sensor chip
Protocol: (§1) FIGS. 9A to 9C show the effect of pretreating U937-C5aR cells with purified DBP or DBP peptides on the binding to DBP immobilized on a Biacore sensor chip. FIG. 9A: 10^6 cells/ml in HBSS were not treated (control), pretreated with 50 nM DBP, 0.5 μM DBP peptide 1 (p1) or DBP peptide 2 (p2). FIG. 9B: DBP peptide 1 immobilized to the Biacore sensor chip. FIG. 9C: DBP peptide 2 immobilized to the Biacore sensor chip. Data is expressed as response units of the molecular interaction on the sensor chip.
According to the present invention, the interaction of an immobilized ligand, e.g., immobilized DBP, binding to cells can be measure by any established technology available in the art, e.g., by surface plasmon resonance (SPR) or Biacore technology. For example, in the present invention, the binding of U937-C5aR cells to immobilized DBP were examined by Biacore technology, the result of which is used to further determine if the DBP peptides generated in the present invention can alter the interaction U937-C5aR cells and DBP. […] To investigate further the effect of DBP peptides on cell binding, peptide 1 (FIG. 9B) and peptide 2 (FIG. 9C) were immobilized to Biacore sensor chips. […] These Biacore experiments have provided a powerful quantitative tool to investigate the cell binding region on DBP and examine the effects on DBP peptides on this interaction.

[2] = system: differentiated HL-60 cells; assay: Chemotaxis assay, differentiated HL-60 cells responding to C5a, C5a plus DBP or ZAS; format: cell-based, Human; details: for block of the cochemotactic function of full-length natural DBP (C5a+DBP) / HL-60 cell chemotactic response to complement-activated serum (ZAS): cells pretreated with 1 μM peptide 30 min; for block of the cochemotactic function of full-length natural DBP (C5a+DBP): 100 pM C5a plus 50 nM DBP, 60 min; for HL-60 cell chemotactic response to complement-activated serum (ZAS): 1% ZAS; for enhancement of C5a-mediated chemotaxis by the peptides: peptides by themselves or mixed together
Protocol: Cells (6×10^6/ml) were resuspended in chemotaxis buffer and treated either with chemotaxis buffer (control), 1 μM of peptide 1 (130-152), or 1 μM of peptide 2 (150-172) for 30 min at room temperature. The chemotactic response of differentiated HL-60 cells to 100 pM C5a alone, C5a plus 50 nM full-length natural DBP or 1% zymosan-activated serum (ZAS) was measured for 60 minutes at 37° C. Numbers represent net cell movement in 60 min, mean±SEM of 3 experiments.
(§2) Cells and cell culture: Human promyelocytic cell line HL-60 was obtained from ATCC (Rockville, Md.) and cultured in RPMI 1640 medium supplemented with 10% FBS. Differentiation of HL-60 cells was initiated with 250 μM Bt2cAMP for 48 hours.
Chemotaxis assay. Chemotaxis was performed as described previously (see Kew, R. R. et al., J. Leukoc. Biol. 58, 55-58 (1995)). In brief, 35 μl of C5a (0.01 to 1 nM) in the chemotaxis buffer (HBSS with 1% BSA, 10 mM HEPES) were placed in duplicate in the lower chamber of a 48-well chamber (Neuroprobe, Md.). The lower compartments were covered with a 5 μm pore cellulose nitrate filter and then 50 μl of the cell suspension (2.5×10^5/well) was pipetted into the upper compartments. The chemotactic chamber was incubated for 1 hour at 37° C. in a humidified incubator with 5% CO2. Following incubation, the filter was fixed, stained and mounted on a microscope slide. Cell movement was measured as the distance in microns that the leading front of the cells had migrated into the filter (see Zigmond, S. et al., J. Exp. Med. 137, 387 (1973)).

[3] = biological target: T1, DBP immobilized on a Biacore sensor chip; assay: Biacore surface plasmon resonance: U937-C5aR cell binding to immobilized DBP; details: FIG. 9A; 10^6 cells/ml pretreated with 50 nM DBP or 0.5 μM DBP peptide
Protocol: FIG. 8A and FIG. 8B show immobilization of DBP on a Biacore surface plasmon resonance sensor chip CM5. Purified DBP in HBSS (5 μM) was coupled to the sensor chip. Coupling was detected using 5 μg/ml affinity-purified anti-DBP (FIG. 8A). Different concentrations of U937-C5aR cells in HBSS were injected into the flow cell and allowed to interact with the immobilized DBP (FIG. 8B). Data is expressed as response units of the molecular interaction on the sensor chip.
as §1
U937-C5aR cells (10^6 cells/ml in HBSS) were pretreated with a 25 μg/ml control IgG, 50 nM purified DBP or 25 μg/ml affinity-purified anti-CD44 and then allowed to interact with DBP immobilized on a Biacore sensor chip. Data is expressed as response units of the molecular interaction on the sensor chip.
According to the present invention, the interaction of an immobilized ligand, e.g., immobilized DBP, binding to cells can be measure by any established technology available in the art, e.g., by surface plasmon resonance (SPR) or Biacore technology. For example, in the present invention, the binding of U937-C5aR cells to immobilized DBP were examined by Biacore technology, the result of which is used to further determine if the DBP peptides generated in the present invention can alter the interaction U937-C5aR cells and DBP. […] To investigate further the effect of DBP peptides on cell binding, peptide 1 (FIG. 9B) and peptide 2 (FIG. 9C) were immobilized to Biacore sensor chips. […] Finally, the present invention also identifies that CD44 on the cell surface binds DBP and can, in part, mediate the C5a chemotactic cofactor effect of DBP (McVoy and Kew, J. Immunol. 175:4754, 2005). Therefore, using Biacore technology the present invention addresses the effect of blocking CD44 on U937-C5aR binding to immobilized DBP (FIG. 10). In the present invention, U937-C5aR cells were pretreated with either an irrelevant goat IgG (negative control), purified soluble DBP (positive control) or affinity-purified goat anti-CD44. […] These Biacore experiments have provided a powerful quantitative tool to investigate the cell binding region on DBP and examine the effects on DBP peptides on this interaction.

[4] = system: U937-C5aR cells; assay: C5a-induced intracellular calcium mobilization in U937-C5aR cells; format: cell-based, human; details: FIG. 11B, 12; 0.5 μM DBP peptide, 50 nM DBP, 0.1 nM C5a
Protocol: FIG. 11A and FIG. 11B show the effect of DBP on C5a-induced intracellular calcium mobilization in U937-C5aR cells. U937-C5aR cells (10^7 cells/ml) were resuspended in HBSS-1% BSA containing 2 μM Fluo-3 AM and incubated at 37° C. for 40 minutes. Cells incubated without the dye were used as a control to measure autofluorescence (Fmin). Following the dye uptake, cells were washed twice then suspended at 5×10^6 cells/ml in HBSS containing 1% BSA. For the pretreatment experiments, cells were incubated for 30 min at 22° C. with 50 nM DBP or 0.5 μM DBP peptide 1 (p1). For each measurement, 400 μl of cell suspension was added to a cuvette and stimulated with the indicated concentration of C5a (FIG. 11A) or 0.1 nM C5a (FIG. 11B). Fluorescence was then measured immediately using a Perkin-Elmer LS-5 fluorometer at 505 nm excitation, 526 nm emission for Fluo-3 AM. Fmax was measured by treating labeled cells with 60 μM digitonin. Intracellular free calcium concentrations were calculated using the following formula: (Ca^2+)=Kd (F−Fmin)/(Fmax−F), where Kd=325 nM for Fluo-3 according to manufacturer (Molecular Probes). Data are presented as mean±SEM (n=4-6) of the increase in intracellular calcium concentration.
U937-C5aR cells (10^7 cells/ml) were resuspended in HBSS-1% BSA containing 2 μM Fluo-3 AM and incubated at 37° C. for 40 minutes. Cells incubated without the dye were used as a control to measure autofluorescence (Fmin). Following the dye uptake, cells were washed twice then suspended at 5×10^6 cells/ml in HBSS containing 1% BSA. Cells were incubated for 30 min at 22° C. with either 50 nM DBP or 0.5 μM DBP peptide. For each measurement, 400 μl of cell suspension was added to a cuvette and stimulated with 0.1 nM purified C5a. Fluorescence was then measured immediately using a Perkin-Elmer LS-5 fluorometer at 505 nm excitation, 526 nm emission for Fluo-3 AM. Fmax was measured by treating labeled cells with 60 μM digitonin. Intracellular free calcium concentrations were calculated using the following formula: (Ca2+)=Kd (F−Fmin)/(Fmax−F), where Kd=325 nM for Fluo-3 according to manufacturer (Molecular Probes)

[5] = biological target: T2, G-actin (Oryctolagus cuniculus, UniProt P68135); assay: G-actin binding detected by non-denaturing PAGE; details: non-denaturing PAGE (data not shown)
T2 construct: G-actin was purified from rabbit skeletal muscle; from tissue; host or cells: rabbit skeletal muscle
Protocol: Functional characterization of reDBP. The capacity of reDBP to bind 25(OH)-vitamin D3 was measured to determine if the expressed proteins could functionally bind a physiological ligand. […] The ability of reDBPs to enhance C5a-mediated chemotaxis and Ca^2+ flux in differentiated HL-60 cells was determined next.

[6] = system: differentiated HL-60 cells; assay: Ligand-induced calcium mobilization (Fluo-3 AM) in differentiated HL-60 cells; format: cell-based, Human; details: differentiated HL-60 cells incubated 30 min with 50 nM of indicated DBP, then C5a
Protocol: as §2
Ligand-induced calcium mobilization. Calcium mobilization studies were performed using the Fluo-3 AM probe as described previously (see Merritt, J. E. et al., Biochem. J. 269, 513-519 (1990)). Differentiated HL-60 cells (1×10^7 cells/ml) were resuspended in HBSS-1% BSA containing 2 μM Fluo-3 AM (Molecular Probes, Eugene, Oreg.) and incubated at 37° C. for 40 minutes. Cells incubated without the dye were used as a control to measure autofluorescence (Fmin). Following the dye uptake, cells were washed twice then suspended at 5×10^6 cells/ml in HBSS containing 1% BSA. Half of the cell suspension was treated with 50 nM DBP for 30 min at room temperature, the other half served as the untreated control. For each measurement, 400 μl of cell suspension (with or without DBP) was added to a cuvette and stimulated with various concentrations of purified C5a at room temperature (22-24° C.). Fluorescence was then measured immediately using a Perkin-Elmer LS-5 fluorometer at 505 nm excitation, 526 nm emission for Fluo-3 AM. Fmax was measured by treating labeled cells with 60 μM digitonin. Intracellular free calcium concentrations were calculated using the following formula: (Ca^2+)=Kd (F−Fmin)/(Fmax−F), where Kd=325 nM for Fluo-3 according to manufacturer (Molecular Probes).

Molecule | U937-C5aR cell binding to immobilized peptide [1] | block of the cochemotactic function of full-length natural DBP (C5a+DBP) ([2]; listed as DBP peptide 1) | block of the cochemotactic function of full-length natural DBP (C5a+DBP) ([2]; listed as SEQ ID NO: 3) | HL-60 cell chemotactic response to complement-activated serum (ZAS) ([2]; listed as DBP peptide 1) | HL-60 cell chemotactic response to complement-activated serum (ZAS) ([2]; listed as SEQ ID NO: 3) | enhancement of C5a-mediated chemotaxis by the peptides [2] | inhibition of U937-C5aR cell binding to the DBP chip [3] | block of the DBP-enhanced C5a calcium signal [4] | block of the cochemotactic function of full-length natural DBP (C5a+DBP) [2] | G-actin binding [5] | enhancement of C5a-mediated chemotaxis (net cell movement) ([2]; differentiated HL-60 cells, 100 pM C5a (FIG. 1: 25-200 pM) plus 50 nM of indicated DBP, 60 min at 37° C) | enhancement of intracellular Ca2+ flux in response to C5a [6]
EAFRKDPKEYANQFMWEYSTNYG [peptide 1, DBP residues 130-152] | do not bind | completely blocked the chemotactic enhancing effect of DBP | completely block | completely blocked | eliminate | could not enhance C5a-mediated chemotaxis | no effect on cell binding | completely blocks | – | – | – | –
NYGQAPLSLLVSYTKSYLSMVGS [peptide 2, DBP residues 150-172] | do bind | – | – | – | – | could not enhance C5a-mediated chemotaxis | about 50% | – | not | – | – | –
B1 | – | – | – | – | – | – | – | – | – | bound G-actin in a 1:1 molar complex | significantly enhanced | significantly enhanced
